Measurements published in ChEMBL document CHEMBL1201862, “PubChem BioAssay data set” (2004).
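96-well plates; 48 h exposure; 5 concentrations. Endpoints by linear interpolation between flanking doses. Not reached: highest tested concentration assigned. GI50: concentration for 50% inhibition of growth.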 The source made the active and inactive calls. Cut-off read from the data, not from the text of the source: active = GI50 up to about 1.1 µM and inactive = higher.

Assays:
Assay in all cases: DTP human tumour cell line panel, 48 h
[1] = tested on: 786-0
[2] = tested on: ACHN
[3] = tested on: HL-60
[4] = tested on: HOP-62
[5] = tested on: LOX IMVI
[6] = tested on: MOLT-4
[7] = tested on: OVCAR-4
[8] = tested on: OVCAR-8
[9] = tested on: RXF 393
[10] = tested on: SK-MEL-2
[11] = tested on: SK-MEL-5
[12] = tested on: SK-OV-3
[13] = tested on: UACC-257
[14] = tested on: UACC-62
[15] = tested on: NCI-H226
[16] = tested on: NCI-H23

Measured: GI50

O=C(O)/C(=C\c1ccccc1Cl)S(=O)(=O)c1ccccc1
inactive: [1] > 100 µM | [2] > 100 µM | [3] > 100 µM | [4] > 100 µM | [5] > 100 µM | [6] > 100 µM | [7] > 100 µM | [8] > 100 µM | [9] > 100 µM | [10] > 100 µM | [11] > 100 µM | [12] > 100 µM | [13] > 100 µM | [14] > 100 µM

c1ccc2c(OCCSCCCCCCCCCCSCCOc3cccc4ccccc34)cccc2c1
inactive: [1] > 100 µM | [2] > 100 µM | [3] > 100 µM | [4] > 100 µM | [5] > 100 µM | [6] > 100 µM | [15] > 100 µM | [16] > 100 µM | [8] > 100 µM | [9] > 100 µM | [10] > 100 µM | [11] > 100 µM | [12] > 100 µM | [13] > 100 µM | [14] > 100 µM

O=C(NOC(=O)c1ccc([N+](=O)[O-])cc1)c1ccc(Cl)cc1
inactive: [1] 54.6 µM | [2] 37.6 µM | [3] 15.8 µM | [4] > 100 µM | [5] 6.87 µM | [6] 20.4 µM | [16] > 100 µM | [7] 88.9 µM | [8] 98.6 µM | [9] 87.1 µM | [10] > 100 µM | [11] 65.2 µM | [12] > 100 µM | [13] > 100 µM | [14] 36.2 µM

CC1(C)C(=NNC(=S)NN)C(C)(C)C1=NNC(=S)NN
inactive: [1] > 100 µM | [2] > 100 µM | [3] > 10 µM | [4] > 100 µM | [5] > 100 µM | [15] 4.9 µM | [16] > 100 µM | [7] > 100 µM | [8] > 100 µM | [9] > 100 µM | [10] > 100 µM | [11] 58.5 µM | [12] > 100 µM | [13] > 100 µM | [14] > 100 µM

Clc1ccc(-c2c(C3=NCCN3)nnn2-c2ccc(Cl)cc2)cc1
inactive: [1] 21.8 µM | [2] 39.7 µM | [3] 17.5 µM | [4] 53.1 µM | [5] 39.4 µM | [6] 11.4 µM | [15] 60.4 µM | [16] 35.2 µM | [7] 47.4 µM | [8] 58.3 µM | [9] 16.7 µM | [10] 13.1 µM | [11] 16.8 µM | [12] 29.6 µM | [13] 18.2 µM | [14] 18.1 µM

CCN(CC)C(=O)c1cccc2c(OC)ccc(OC)c12
inactive: [1] > 100 µM | [2] > 100 µM | [3] > 100 µM | [4] > 100 µM | [5] > 100 µM | [6] > 100 µM | [15] > 100 µM | [16] > 100 µM | [7] > 100 µM | [8] > 100 µM | [9] > 100 µM | [10] > 100 µM | [11] > 100 µM | [12] > 100 µM | [13] > 100 µM | [14] > 100 µM

O=C(CC(=O)c1cccc([N+](=O)[O-])c1)C(=O)Nc1ccccc1
inactive: [1] > 100 µM | [2] > 100 µM | [3] > 100 µM | [4] > 100 µM | [5] > 100 µM | [6] > 100 µM | [15] > 100 µM | [16] > 100 µM | [7] > 100 µM | [8] > 100 µM | [9] > 100 µM | [10] > 100 µM | [11] > 100 µM | [13] > 100 µM | [14] > 100 µM

CC#CC(OCC)(OCC)OCC
inactive: [1] > 100 µM | [2] > 100 µM | [3] > 100 µM | [4] > 100 µM | [5] 18.9 µM | [6] > 100 µM | [15] > 100 µM | [16] > 100 µM | [7] > 100 µM | [8] > 100 µM | [9] > 100 µM | [10] > 100 µM | [11] > 100 µM | [12] > 100 µM | [13] > 100 µM | [14] > 100 µM

COc1cccc(C2N3CCCCC3[C@@H]3c4[nH]c5ccccc5c4CCN23)c1OC (stereo partly specified)
inactive: [1] 18.3 µM | [2] 15.2 µM | [3] 15.1 µM | [4] 15.9 µM | [6] 17.5 µM | [16] 16.9 µM | [7] 17.7 µM | [8] 16.5 µM | [9] 13.4 µM | [10] 14.5 µM | [11] 15.8 µM | [12] 17.5 µM | [13] 15.9 µM | [14] 11.6 µM
